Among the data in DBAASP are MIC values, retold here.

The structures appear in SMILES notation. ≈ marks a conversion by molar mass, not a printed value.

Some test systems named below: Escherichia coli; Listeria innocua; Micrococcus luteus A270; Staphylococcus aureus MR; Enterococcus faecium VR; Enterococcus faecalis; Enterococcus faecalis VR; Enterococcus faecium; Bacillus subtilis.
Common to all, as to assay: ≥ marks a high value that may be exact or a test limit, other limits are often not marked, values filed in µg/mL are converted to µM
The subject of test [1] is Klebsiella aerogenes LMG 02094.
The test system of test [2] is Escherichia coli LMG 15862.
The test system of test [3] is Pseudomonas aeruginosa LMG 6395.
The subject of test [4] is Klebsiella pneumoniae LMG 20218.
The subject of test [5] is Acinetobacter baumannii LMG 01041.
Test [6] relates to Salmonella enterica subsp. enterica serovar Enteritidis.
Test [7] relates to Pseudomonas aeruginosa KCTC 1637.
Test [8] has as its system Staphylococcus epidermidis KCTC 1917.
Test [9] has as its system Bacillus subtilis KCTC 3068.
Test [10] deals with Escherichia coli KCTC 1682.
Test [11] has as its system Salmonella typhimurium KCTC 1926.
Test [12] concerns Staphylococcus aureus KCTC 1621.
Test [13] concerns Staphylococcus epidermidis ATCC 51625.
The subject of test [14] is Streptococcus pyogenes ATCC 19615.
For test [15], the system named is Salmonella enterica subsp. enterica serovar Typhimurium ATCC 14028.
In test [16] the test system is Staphylococcus aureus ATCC 25923.
The test system of test [17] is Pseudomonas aeruginosa ATCC 27853.
For test [18], the system named is Enterococcus faecalis ATCC 29212.
The subject of test [19] is Staphylococcus aureus ATCC BAA-44.
Test [20] concerns Klebsiella pneumoniae ATCC 13883.
For test [21], the system named is Klebsiella pneumoniae ATCC 700603.
In test [22] the test system is Acinetobacter baumannii ATCC 19606.
The test system of test [23] is Staphylococcus aureus ATCC 43300.
In test [24] the test system is Candida albicans ATCC 90028.
Test [25] has as its system Escherichia coli ATCC 25922.
Test [26] deals with Cryptococcus neoformans ATCC 208821.

The MIC is the smallest concentration in the dilution series that meets the test's criterion for growth inhibition. High values mean a less susceptible organism, low ones a more susceptible organism. Turning to `CC[C@H](C)[C@H](NC(=O)[C@H](CCCN=C(N)N)NC(=O)[C@H](CCC(N)=O)NC(=O)[C@@H](NC(=O)[C@@H](NC(=O)[C@@H](N)CCCN=C(N)N)[C@@H](C)CC)C(C)C)C(=O)N[C@@H](CCCCN)C(=O)N[C@@H](CCCCN)C(=O)N[C@@H](Cc1c[nH]c2ccccc12)C(=O)N[C@@H](CC(C)C)C(=O)N[C@@H](CCCN=C(N)N)C(N)=O` [RIVQRIKKWLR], the MIC in test [1] is no less than 128 µM; in test [2] it was 12 µM (≈ 17.9 µg/mL); in test [3], 16 µM (≈ 23.9 µg/mL); in test [4], no less than 32 µM; in [5], no less than 64 µM.

For the molecule `CC(C)C[C@H](N)C(=O)N[C@@H](C)C(=O)N[C@@H](Cc1cnc[nH]1)C(=O)N[C@@H](CCCN=C(N)N)C(=O)N[C@@H](Cc1ccc(O)cc1)C(=O)N[C@@H](Cc1cnc[nH]1)C(=O)O` [LAHRYH], the minimal inhibitory concentration (MIC) in test [6] came out at 9 µM (≈ 7.16 µg/mL); against Escherichia coli, 2 µM (≈ 1.59 µg/mL); in the test with Listeria innocua, 10 µM (≈ 7.96 µg/mL); in the test on Micrococcus luteus A270, 9 µM (≈ 7.16 µg/mL).

Turning to `CC(C)C[C@H](NC(=O)[C@H](CS)NC(=O)[C@H](CCCN=C(N)N)NC(=O)[C@H](C)NC(=O)[C@H](C)N)C(=O)N[C@@H](CO)C(=O)N[C@@H](CCC(N)=O)C(=O)N[C@@H](CCCN=C(N)N)C(=O)N[C@@H](CCCN=C(N)N)C(=O)N[C@@H](CCCCN)C(N)=O` [AARCLSQRRK], the MIC in the test on Staphylococcus aureus MR was 30 µM (≈ 35.6 µg/mL); in test [7], 30 µM (≈ 35.6 µg/mL); in test [8], 15 µM (≈ 17.8 µg/mL); with Enterococcus faecium VR, 30 µM (≈ 35.6 µg/mL); with Enterococcus faecalis, 30 µM (≈ 35.6 µg/mL); against Enterococcus faecalis VR, 30 µM (≈ 35.6 µg/mL). Also, the MIC against Enterococcus faecium is 30 µM (≈ 35.6 µg/mL); in test [9], 30 µM (≈ 35.6 µg/mL); in test [10] it was 30 µM (≈ 35.6 µg/mL); in test [11], 15 µM (≈ 17.8 µg/mL); in test [12], 30 µM (≈ 35.6 µg/mL).

Consider `CC[C@H](C)[C@H](NC(=O)[C@H](CCCN=C(N)N)NC(=O)[C@H](CCC(N)=O)NC(=O)[C@@H](NC(=O)[C@@H](NC(=O)[C@@H](N)CCCN=C(N)N)[C@@H](C)CC)C(C)C)C(=O)N[C@@H](CCCCN)C(=O)N[C@@H](CCCCN)C(=O)N[C@@H](Cc1c[nH]c2ccccc12)C(=O)N[C@@H](CCCN=C(N)N)C(N)=O` [RIVQRIKKWR], for which the MIC in [1], in test [2], in test [3], in test [4] and in test [5] was no less than 256 µM throughout.

As for `CC(C)C[C@H](NC(=O)[C@H](CCCN=C(N)N)NC(=O)[C@H](CO)NC(=O)[C@H](Cc1cnc[nH]1)NC(=O)[C@H](CCCN=C(N)N)NC(=O)[C@@H]1CCCN1C(=O)[C@H](CCCN=C(N)N)NC(=O)[C@H](Cc1cnc[nH]1)NC(=O)[C@@H]1CCCN1C(=O)[C@H](CO)NC(=O)[C@H](CC(C)C)NC(=O)[C@H](CO)NC(=O)[C@H](CCCN=C(N)N)NC(=O)[C@H](CCCCN)NC(=O)[C@@H](NC(=O)[C@@H](NC(=O)CNC(=O)[C@H](CCCN=C(N)N)NC(=O)[C@H](Cc1cnc[nH]1)NC(=O)[C@H](Cc1c[nH]c2ccccc12)NC(=O)[C@H](Cc1ccccc1)NC(=O)[C@H](Cc1cnc[nH]1)NC(=O)[C@H](Cc1ccc(O)cc1)NC(=O)[C@@H](N)Cc1ccc(O)cc1)C(C)C)[C@@H](C)O)C(=O)N[C@@H](CCC(N)=O)C(=O)N[C@@H](CCCN=C(N)N)C(=O)O` [YYHFWHRGVTKRSLSPHRPRHSRLQR], the MIC in test [13] came to 6 µM (≈ 20.2 µg/mL); in [14], 4 µM (≈ 13.4 µg/mL); in test [15] it was 4 µM (≈ 13.4 µg/mL); in test [16], 4 µM (≈ 13.4 µg/mL); against Escherichia coli, 2 µM (≈ 6.72 µg/mL); against Bacillus subtilis it was 2 µM (≈ 6.72 µg/mL). The minimum inhibitory concentration (MIC) in [17] stood at 4 µM (≈ 13.4 µg/mL); in test [18], 4 µM (≈ 13.4 µg/mL); in [19] it was 6 µM (≈ 20.2 µg/mL); in test [20], 2 µM (≈ 6.72 µg/mL).

`CC[C@H](C)[C@H](NC(=O)[C@H](CCCN=C(N)N)NC(=O)[C@H](CCCN=C(N)N)NC(=O)[C@H](CCCCN)NC(=O)[C@@H](NC(=O)[C@@H](N)CCCN=C(N)N)[C@@H](C)CC)C(=O)N[C@@H](CCCCN)C(=O)N[C@@H](CCCCN)C(=O)N[C@@H](Cc1c[nH]c2ccccc12)C(=O)N[C@@H](CC(C)C)C(=O)N[C@@H](CCCN=C(N)N)C(N)=O` [RIKRRIKKWLR]: the MIC in test [1] was no less than 256 µM; in test [2], 24 µM (≈ 37.2 µg/mL); in [3] it was no less than 32 µM; in test [4] it was no less than 256 µM; in test [5] it was no less than 256 µM.

Take `CC[C@H](C)[C@H](NC(=O)[C@H](CS)NC(=O)[C@H](Cc1cnc[nH]1)NC(=O)[C@H](CC(C)C)NC(=O)[C@H](C)N)C(=O)N[C@@H](C)C(=O)N[C@@H](CC(C)C)C(=O)N[C@@H](CCCN=C(N)N)C(=O)N[C@@H](CCCCN)C(=O)N[C@@H](CCCCN)C(N)=O` [ALHCIALRKK]: the MIC against Staphylococcus aureus MR is 7.5 µM (≈ 8.64 µg/mL); in test [7], 15 µM (≈ 17.3 µg/mL); in test [8], 15 µM (≈ 17.3 µg/mL); against Enterococcus faecium VR, 3.8 µM (≈ 4.38 µg/mL); in the test with Enterococcus faecalis it was 15 µM (≈ 17.3 µg/mL); against Enterococcus faecalis VR, 15 µM (≈ 17.3 µg/mL). Besides, the minimal inhibitory concentration (MIC) with Enterococcus faecium was 15 µM (≈ 17.3 µg/mL); in test [9], 7.5 µM (≈ 8.64 µg/mL); in test [10], 15 µM (≈ 17.3 µg/mL); in test [11], 15 µM (≈ 17.3 µg/mL); in test [12] it was 7.5 µM (≈ 8.64 µg/mL).

Turning to `CSCC[C@H](NC(=O)[C@H](C)NC(=O)[C@H](CC(C)C)NC(=O)[C@H](CS)NC(=O)[C@H](Cc1cnc[nH]1)NC(=O)[C@H](C)NC(=O)[C@H](C)N)C(=O)N[C@@H](CCCN=C(N)N)C(=O)N[C@@H](CCCN=C(N)N)C(=O)N[C@@H](CCCCN)C(N)=O` [AAHCLAMRRK], the MIC with Staphylococcus aureus MR came out at 30 µM; in test [7] it was 30 µM; in test [8] it was 30 µM; in the test with Enterococcus faecium VR, 7.5 µM; in the test on Enterococcus faecalis, 30 µM; in the test on Enterococcus faecalis VR, 30 µM. Moreover, the MIC against Enterococcus faecium was 30 µM; in test [9], 15 µM; in test [10], 30 µM; in test [11], 30 µM; in [12] it was 30 µM.

Turning to `NC(N)=NCCC[C@H](NC(=O)[C@H](Cc1cnc[nH]1)NC(=O)[C@H](CO)NC(=O)[C@H](CCCN=C(N)N)NC(=O)[C@H](CCCN=C(N)N)NC(=O)[C@H](CS)NC(=O)[C@H](CCCN=C(N)N)NC(=O)[C@H](Cc1cnc[nH]1)NC(=O)[C@H](Cc1cnc[nH]1)NC(=O)[C@@H](N)CO)C(=O)N[C@@H](CS)C(=O)O` [SHHRCRRSHRC], the MIC is greater than 22.3 µM in test [21]; greater than 22.3 µM in test [22]; greater than 22.3 µM in test [17]; greater than 22.3 µM in test [23]; 22.3 µM (≈ 32 µg/mL) in test [24]; greater than 22.3 µM in [25]. In test [26], the minimum inhibitory concentration (MIC) worked out at 22.3 µM (≈ 32 µg/mL).
